Measured values from article PMC4684357, “Comparative Evaluation of the Antimicrobial Activity of Different Antimicrobial Peptides against a Range of Pathogenic Bacteria” (PLoS ONE, 2015).
Read-outs that look alike come from different tables or passages of the source. Residues, ends and D or L forms follow the SMILES beside them. No end group written: not given here.

Key:
[1] = system: horse erythrocytes; assay: Cytotoxicity assay: haemoglobin release (hemolytic activity); type: cell-based; details: washed horse erythrocytes 10% (v/v) in PBS, 60 min 37°C, absorbance 540 nm, relative to full lysis by 0.2% Triton X-100, average ± SD of duplicates
Method: The cytotoxicity for each AMP was determined spectrophotometrically by measuring the haemoglobin release from horse erythrocytes. Briefly, fresh defibrinated horse blood was washed three times with PBS, centrifuged for 15 minutes at 1000g and resuspended at 10% (v/v) in PBS. Samples of the washed horse erythrocytes (100 μl) were transferred to a 96 well microtiter plate and mixed with 100 μl AMP solution. PBS was used as a negative control, and 0.2% TritonX-100 was used as a positive control. The microtiter plates were incubated for 60 minutes at 37°C and then centrifuged for 10 minutes at 1300g. The supernatants were transferred to a flat-bottom 96 well polystyrene microtiter plate and the haemoglobin release was monitored by measuring the absorbance at 540 nm. The percentage of hemolysis was calculated as 100 *(Asample−APBS)/(ATritonX-100 –APBS), where Asample is the experimental absorbance of the peptide sample, APBS is the control absorbance of untreated erythrocytes, and ATritonX-100 is the absorbance of 0.2% TritonX-100 lysed cells.

[2] = system: BW25113 wild-type; assay: MIC in LPS backgrounds; type: cell-based, Escherichia coli; details: E. coli BW25113 wild-type; CLSI; triplicates
Text: (§1) The Yersinia ruckeri strain was kindly provided by Prof. Kurt Buchmann, University of Copenhagen, Faculty of Health and Medical Sciences, and the Flavobacterium psychrophilum strain was kindly provided by Prof. Inger Dalsgaard, DTU, Denmark. BW25113 is the Escherichia coli wild-type strain, a derivative of the F^-,λ^- E. coli K12 strain BD792 which was used in generating the KEIO collection. E. coli ATCC25922 is a clinical isolate, serotype O6 and is often used as control strain in antimicrobial susceptibility testing. All strains were grown in Mueller-Hinton-II medium, except L. monocytogenes which was grown in BHI medium and F. psychrophilum which was grown in TYES medium (Tryptone yeast extract plus salts). Incubation took place aerobically at 37°C, except for Y. ruckeri and A. salmonicida, which were grown aerobically at RT (20°C), C. jejuni NCTC11168 which was grown under microaerophilic conditions at 42°C and F. psychrophilum 1947 which was grown under aerobic conditions at 15°C. All plates were incubated for 18–20 hours, except the F. psychrophilum plates, which were incubated for 72 hours.
(§2) The minimum inhibitory concentrations (MICs) of the AMPs were measured in 96-well microtiter plates according to the Clinical and Laboratory Standards Institute (CLSI, formerly National Committee for Clinical Laboratory Standards [NCCLS]). Briefly, liquid Mueller-Hinton-II medium containing increasing concentrations of AMPs is inoculated with a defined number of cells (approx. 10^5 CFUs/ml) in 96-well microtiter plates (polypropylene), whereas each plate also includes a positive growth control and a negative control (sterile control). After incubation, the MIC is determined by the lowest concentration showing no visible growth. All plates were incubated for 18–20 hours, except the F. psychrophilum plates which were incubated for 72 hours.

[3] = system: BW25113 ΔrfaC; type: cell-based, Escherichia coli; details: E. coli BW25113 ΔrfaC; CLSI; triplicates
Text: as §1, §2

[4] = system: BW25113 ΔrfaE; type: cell-based, Escherichia coli; details: E. coli BW25113 ΔrfaE; CLSI; triplicates
Text: as §1, §2

[5] = system: BW25113 ΔrfaF; type: cell-based, Escherichia coli; details: E. coli BW25113 ΔrfaF; CLSI; triplicates
Text: as §1, §2

[6] = system: BW25113 ΔrfaG; type: cell-based, Escherichia coli; details: E. coli BW25113 ΔrfaG; CLSI; triplicates
Text: as §1, §2

[7] = system: ATCC25922 ΔrfaC; type: cell-based, Escherichia coli; details: E. coli ATCC25922 ΔrfaC; CLSI; triplicates
Text: as §1, §2
(§3) Construction of knock-out mutants of E. coli ATCC25922 were constructed using the λ-Red recombinase gene replacement system. Primers for amplification of the npt gene of pKD4 are listed in S1 Table. The correct double-crossover and recombination event was confirmed by primers listed in S1 Table and by sequencing. Finally, the kanamycin cassette was removed.

[8] = system: ATCC25922 ΔrfaE; type: cell-based, Escherichia coli; details: E. coli ATCC25922 ΔrfaE; CLSI; triplicates
Text: as §1, §2, §3

[9] = system: ATCC25922 ΔrfaF; type: cell-based, Escherichia coli; details: E. coli ATCC25922 ΔrfaF; CLSI; triplicates
Text: as §1, §2, §3

[10] = system: ATCC25922 ΔrfaG; type: cell-based, Escherichia coli; details: E. coli ATCC25922 ΔrfaG; CLSI; triplicates
Text: as §1, §2, §3

[11] = system: E. coli ATCC25922; type: cell-based, Escherichia coli
Text: as §1
All plates were incubated for 18–20 hours, except the F. psychrophilum plates which were incubated for 72 hours.
All the MIC measurements were carried out in duplicate.

[12] = system: E. coli ATCC25922
Method: as §2, with “hours. […]” for “hours.”

CC[C@H](C)[C@H](NC(=O)CN)C(=O)NCC(=O)N[C@@H](C)C(=O)N[C@H](C(=O)N[C@@H](CC(C)C)C(=O)N[C@@H](CCCCN)C(=O)N[C@H](C(=O)N[C@@H](CC(C)C)C(=O)N[C@H](C(=O)N[C@H](C(=O)NCC(=O)N[C@@H](CC(C)C)C(=O)N1CCC[C@H]1C(=O)N[C@@H](C)C(=O)N[C@@H](CC(C)C)C(=O)N[C@H](C(=O)N[C@@H](CO)C(=O)N[C@@H](Cc1c[nH]c2ccccc12)C(=O)N[C@H](C(=O)N[C@@H](CCCCN)C(=O)N[C@@H](CCCNC(=N)N)C(=O)N[C@@H](CCCCN)C(=O)N[C@@H](CCCNC(=N)N)C(=O)N[C@@H](CCC(N)=O)C(=O)N[C@@H](CCC(N)=O)C(N)=O)[C@@H](C)CC)[C@@H](C)CC)[C@@H](C)O)[C@@H](C)O)C(C)C)C(C)C [Melittin, reference compound]
110 ± 1%: Hemolytic Activity ([1]; peptide 128 μg/ml)
16 to 32 µg/mL: Antimicrobial Activity MIC [2]
2 µg/mL: Antimicrobial Activity MIC [7] | Antimicrobial Activity MIC [8] | Antimicrobial Activity MIC [9]
4 µg/mL: Antimicrobial Activity MIC [3] | Antimicrobial Activity MIC [4] | Antimicrobial Activity MIC [5] | Antimicrobial Activity MIC [6] | Antimicrobial Activity MIC [10]

CC[C@H](C)[C@H](NC(=O)[C@@H]1CCCN1C(=O)[C@H](CCCNC(=N)N)NC(=O)[C@@H]1CCCN1C(=O)[C@@H]1CCCN1C(=O)[C@@H](NC(=O)[C@@H]1CCCN1C(=O)[C@H](CCCNC(=N)N)NC(=O)[C@@H]1CCCN1C(=O)[C@H](CC(C)C)NC(=O)[C@H](Cc1ccc(O)cc1)NC(=O)[C@H](CO)NC(=O)CNC(=O)[C@H](CCCCN)NC(=O)[C@H](CC(=O)O)NC(=O)[C@@H](N)C(C)C)[C@@H](C)O)C(=O)N[C@@H](Cc1ccc(O)cc1)C(=O)N[C@@H](CC(N)=O)C(=O)N[C@@H](CCCNC(=N)N)C(=O)N[C@@H](CC(N)=O)C(=O)O [Pyrrhocoricin] (H-VDKGSYLPRPTPPRPIYNRN-OH)
0 ± 0%: Hemolytic Activity ([1]; peptide 256 μg/ml)

CC[C@H](C)[C@H](NC(=O)[C@H](CC(C)C)NC(=O)[C@H](CCCCN)NC(=O)[C@H](CC(C)C)NC(=O)[C@H](CC(C)C)NC(=O)[C@H](CCCCN)NC(=O)[C@H](CCCNC(=N)N)NC(=O)[C@H](Cc1ccccc1)NC(=O)[C@H](CC(C)C)NC(=O)[C@H](CCCCN)NC(=O)[C@H](CCCNC(=N)N)NC(=O)[C@H](CC(C)C)NC(=O)[C@@H](N)CCCCN)C(=O)N[C@@H](CCCNC(=N)N)C(=O)N[C@@H](CCCCN)C(=O)N[C@@H](CC(C)C)C(=O)N[C@@H](CC(C)C)C(=O)N[C@@H](CCCNC(=N)N)C(=O)O [Cap11-1-18m^2] (H-KLRKLFRKLLKLIRKLLR-OH)
16 µg/mL: Antimicrobial Activity MIC [2] | Antimicrobial Activity MIC [7] | Antimicrobial Activity MIC [8] | Antimicrobial Activity MIC [9] | Antimicrobial Activity MIC [10]
32 µg/mL: Antimicrobial Activity MIC [11] | Antimicrobial Activity MIC [12]
8 µg/mL: Antimicrobial Activity MIC [3] | Antimicrobial Activity MIC [4] | Antimicrobial Activity MIC [5] | Antimicrobial Activity MIC [6]

GLRKKFRKTRKRIQKLGRKIGKTGRKVWKAWREYGQIPYPCRI [Cap11]
8 µg/mL: Antimicrobial Activity MIC [12] | Antimicrobial Activity MIC [2] | Antimicrobial Activity MIC [3] | Antimicrobial Activity MIC [4] | Antimicrobial Activity MIC [5] | Antimicrobial Activity MIC [6] | Antimicrobial Activity MIC [10]
16 µg/mL: Antimicrobial Activity MIC [11]
4 µg/mL: Antimicrobial Activity MIC [7] | Antimicrobial Activity MIC [8] | Antimicrobial Activity MIC [9]
